According to ChEMBL document CHEMBL5634181, “Genome Mining Leads to Diverse Sesquiterpenes with Anti-inflammatory Activity from an Arctic-Derived Fungus” (J Nat Prod, 2024):
Each block holds one compound with its values, some of them ahead of it. Activity calls are given as the source filed them. No cut-off for these calls is given here.

Key:
[1] = tested on: RAW264.7; assay: Anti-inflammatory activity against LPS-Induced mouse RAW264.7 cells assessed as reduction in NO release at 10 uM incubated for 24 hrs; format: functional, cell-based
[2] = tested on: RAW264.7; assay: Antiproliferative activity against LPS-induced mouse RAW264.7 cells assessed as reduction in cell viability > 40 uM incubated for 24 hrs by CCK-8 assay; format: functional, cell-based
[3] = tested on: RAW264.7; assay: Anti-inflammatory activity against LPS-induced mouse RAW264.7 cells reduction in TNF-alpha mRNA level by RT-qPCR analysis; format: functional, cell-based; settings: dose 20-40 µM
[4] = tested on: RAW264.7; assay: Anti-inflammatory activity against LPS-Induced mouse RAW264.7 cells assessed as suppression of NLRP3 expression at 20 to 40 uM by Western blot analysis; format: functional, cell-based; settings: dose 20-40 µM
[5] = tested on: RAW264.7; assay: Cytotoxicity against LPS-induced mouse RAW264.7 cells assessed as effect on cell viability upto to 160 uM incubated for 24 hrs by CCK-8 assay; format: toxicity, cell-based; settings: raw264.7, 24 h
[6] = tested on: RAW264.7; assay: Anti-inflammatory activity against LPS-induced mouse RAW264.7 cells reduction in IL-18 mRNA level by RT-qPCR analysis; format: functional, cell-based; settings: dose 20-40 µM
[7] = species: Danio rerio; assay: Anti-inflammatory activity against CuSO4-induced transgenic Zebrafish acute inflammation model assessed as decrease in NLRP3 expression at 20 to 40 uM preincubated with CuSO4 for 24 hrs followed by compound addition and measured after 2 hrs by RT-qPCR analysis; format: functional, organism-based; settings: dose 20-40 µM
[8] = tested on: RAW264.7; assay: Anti-inflammatory activity against LPS-induced mouse RAW264.7 cells reduction in IL-1beta mRNA level by RT-qPCR analysis; format: functional, cell-based; settings: dose 20-40 µM
[9] = tested on: RAW264.7; assay: Anti-inflammatory activity against LPS-Induced mouse RAW264.7 cells assessed as suppression of p-JNK expression by Western blot analysis; format: functional, cell-based; settings: dose 20-40 µM
[10] = species: Danio rerio; assay: (§1) Anti-inflammatory activity against CuSO4-induced transgenic Zebrafish acute inflammation model assessed as zebrafish movement by measuring decrease in total distance at 20 to 40 uM preincubated with CuSO4 for 24 hrs followed by compound addition and measured after 2 hrs by fluorescence microscopic analysis; format: functional, organism-based; settings: dose 20-40 µM
[11] = tested on: RAW264.7; assay: Anti-inflammatory activity against LPS-Induced mouse RAW264.7 cells assessed as suppression of p-ERK expression by Western blot analysis; format: functional, cell-based; settings: dose 20-40 µM
[12] = tested on: RAW264.7; assay: Anti-inflammatory activity against LPS-Induced mouse RAW264.7 cells assessed as inhibition rate of NO release at 10 uM incubated for 24 hrs relative to control; format: functional
[13] = tested on: RAW264.7; assay: Anti-inflammatory activity against LPS-Induced mouse RAW264.7 cells assessed as suppression of p-p38 expression by Western blot analysis; format: functional, cell-based; settings: dose 20-40 µM
[14] = species: Danio rerio; assay: Anti-inflammatory activity against CuSO4-induced transgenic Zebrafish acute inflammation model assessed as decrease in IL-6 expression at 20 to 40 uM preincubated with CuSO4 for 24 hrs followed by compound addition and measured after 2 hrs by RT-qPCR analysis; format: functional, organism-based; settings: dose 20-40 µM
[15] = species: Danio rerio; assay: Anti-inflammatory activity against CuSO4-induced transgenic Zebrafish acute inflammation model assessed as zebrafish movement by measuring average velocity at 20 to 40 uM preincubated with CuSO4 for 24 hrs followed by compound addition and measured after 2 hrs by fluorescence microscopic analysis; format: functional, organism-based; settings: dose 20-40 µM
[16] = tested on: RAW264.7; assay: Anti-inflammatory activity against LPS-Induced mouse RAW264.7 cells assessed as suppression of caspase-1 expression at 20 to 40 uM by Western blot analysis; format: functional, cell-based; settings: dose 20-40 µM
[17] = species: Danio rerio; assay: as §1, with “as” for “as zebrafish movement by measuring”, “migration of inflammatory cells to lateral line” for “total distance”; format: functional, organism-based; settings: dose 20-40 µM
[18] = tested on: RAW264.7; assay: Anti-inflammatory activity against LPS-induced mouse RAW264.7 cells reduction in IL-6 mRNA level by RT-qPCR analysis; format: functional, cell-based; settings: dose 20-40 µM
[19] = species: Danio rerio; assay: Anti-inflammatory activity against CuSO4-induced transgenic Zebrafish acute inflammation model assessed as decrease in IL-1beta expression at 20 to 40 uM preincubated with CuSO4 for 24 hrs followed by compound addition and measured after 2 hrs by RT-qPCR analysis; format: functional, organism-based; settings: dose 20-40 µM
[20] = species: Danio rerio; assay: Anti-inflammatory activity against CuSO4-induced transgenic Zebrafish acute inflammation model assessed as decrease in caspase-1 expression at 20 to 40 uM preincubated with CuSO4 for 24 hrs followed by compound addition and measured after 2 hrs by RT-qPCR analysis; format: functional, organism-based; settings: dose 20-40 µM
[21] = species: Danio rerio; assay: Anti-inflammatory activity against CuSO4-induced transgenic Zebrafish acute inflammation model assessed as decrease in TNF-alpha expression at 20 to 40 uM preincubated with CuSO4 for 24 hrs followed by compound addition and measured after 2 hrs by RT-qPCR analysis; format: functional, organism-based; settings: dose 20-40 µM

SMILES: Cc1ccc([C@@](C)(O)C/C=C/C(C)(C)O)cc1
- Activity [1]: Active
- Activity [2]: inactive

SMILES: C=C1[C@H](O)CC[C@]2(C)CC[C@@H](C(C)(C)O)C[C@@H]12
- Activity [2]: inactive

SMILES: CO[C@]1([C@H](O)[C@@H](O)CC=C(C)C)C=CCC(C)=C1C
- Activity [2]: inactive

SMILES: CC1=CC[C@@H]([C@@](C)(O)C/C(C)=C/[C@H](C)O)[C@@H](O)[C@H]1O
- Activity [2]: inactive

SMILES: CC(C)=C[C@H]1C[C@@](C)(O)[C@@H]2[C@@H](CC=C(C)[C@@H]2O)O1
- Activity [2]: inactive

SMILES: C=C1C[C@H](O)C[C@]2(C)CC[C@@H](C(C)(C)O)C[C@@H]12
- Activity [2]: inactive

- Activity [20]: Active
SMILES: CC1=CC[C@@]2(C[C@H]1O)[C@H](C)CC[C@@H]2C(C)CO (stereo partly specified)
- Activity [3]: Dose-Dependent Effect
- Activity [4]: Active
- Activity [5]: Non-Toxic
- Activity [6]: Dose-Dependent Effect
- Activity [7]: Active
- Activity [8]: Dose-Dependent Effect
- Activity [9]: Dose-Dependent Effect
- Activity [10]: Active
- Activity [11]: Dose-Dependent Effect
- inhibition at 10 µM [12]: 65%
- Activity [13]: Dose-Dependent Effect
- Activity [14]: Active
- Activity [15]: Active
- Activity [1]: Active
- Activity [16]: Active
- Activity [2]: inactive
- Activity [17]: Active
- Activity [18]: Dose-Dependent Effect
- Activity [19]: Active
- Activity [21]: Active

SMILES: CC(C)=C[C@H]1C[C@@](C)(O)[C@H]2CC=C(C)[C@@H](O)[C@H]2O1
- Activity [1]: Active
- Activity [2]: inactive

SMILES: CC1=CC(=O)[C@H]2C[C@@H]1[C@]2(C)C/C=C/C(C)(C)O
- Activity [2]: Active

SMILES: CC(C)=CCC[C@](C)(O)[C@@H]1CC=C(C)[C@@H](O)[C@H]1O
- Activity [2]: inactive

SMILES: C[C@@H]1C[C@H]2[C@@H]3CCC4=CC(=O)C=C[C@]4(C)[C@@]3(F)[C@@H](O)C[C@]2(C)[C@@]1(O)C(=O)CO [DEXAMETHASONE]
- inhibition at 10 µM [12]: 72%
- Activity [2]: inactive

SMILES: CC(C)=C[C@H](O)C[C@]1(C)[C@@H]2C[C@H]1C(C)=CC2=O
- Activity [2]: inactive

SMILES: CC(C)=CCC[C@](C)(O)[C@@H]1CC=C(C)[C@@H](O)C1
- Activity [1]: Active
- Activity [2]: inactive

SMILES: CC1=C2C[C@H](C(C)(C)O)CC[C@@]2(C)CCC1=O
- Activity [2]: Active

SMILES: CC1=CC(=O)C[C@@]2(C)CC[C@H](C(C)(C)O)C[C@H]12
- Activity [1]: Active
- Activity [2]: inactive

SMILES: CC1=CC[C@@H]2[C@H](O)COC/C(C)=C\[C@@H](O)C[C@]12C
- Activity [2]: inactive
